Biological target: T1, full-length human PIKFYVE (N-terminal GST-fusion) (Homo sapiens, UniProt Q9Y2I7, L932S/Q1183K/Q995L/S1033A/S696N/T998S)
T1 construct: A full-length human PIKFYVE [1-2098(end) amino acids; purchased Carna Biosciences; host or cells: baculovirus expression system
Assay: PIKfyve Biochemical Assay (ADP-Glo Kinase assay, Carna Biosciences)
Procedure: PIKfyve Biochemical Assay. The biochemical PIKFyve inhibition assays were run by Carna Biosciences according to proprietary methodology based on the Promega ADP-Glo™ Kinase assay. […] GST-PIKFYVE was purified by using glutathione sepharose chromatography and used in an ADP-Glo™ Kinase assay (Promega). Reactions were set up by adding the test compound solution, substrate solution, ATP solution and kinase solution, each at 4× final concentrations. Reactions were prepared with assay buffer (50 mM MOPS, 1 mM DTT, pH7.2), mixed, and incubated in black 384 well polystyrene plates for 1 hour at room temperature. ADP-Glo™ reagent was then added for 40 minutes, followed by kinase detection reagent for an additional 40 minutes. The kinase activity was evaluated by detecting relative light units on a luminescence plate reader. Samples were run in duplicate from 10 μM to 3 nM. […] IC50 values were calculated from concentration vs % inhibition curves by fitting to a four-parameter logistic curve.
The biochemical PIKFyve inhibition assays were run by Carna Biosciences according to proprietary methodology based on the Promega ADP-Glo™ Kinase assay. […] The kinase activity was evaluated by detecting relative light units on a luminescence plate reader. […] IC50 values were calculated from concentration vs % inhibition curves by fitting to a four-parameter logistic curve. […]

T1 sequence (Q9Y2I7 whole entry S696N/L932S/Q995L/T998S/S1033A/Q1183K, the tested form may be a part): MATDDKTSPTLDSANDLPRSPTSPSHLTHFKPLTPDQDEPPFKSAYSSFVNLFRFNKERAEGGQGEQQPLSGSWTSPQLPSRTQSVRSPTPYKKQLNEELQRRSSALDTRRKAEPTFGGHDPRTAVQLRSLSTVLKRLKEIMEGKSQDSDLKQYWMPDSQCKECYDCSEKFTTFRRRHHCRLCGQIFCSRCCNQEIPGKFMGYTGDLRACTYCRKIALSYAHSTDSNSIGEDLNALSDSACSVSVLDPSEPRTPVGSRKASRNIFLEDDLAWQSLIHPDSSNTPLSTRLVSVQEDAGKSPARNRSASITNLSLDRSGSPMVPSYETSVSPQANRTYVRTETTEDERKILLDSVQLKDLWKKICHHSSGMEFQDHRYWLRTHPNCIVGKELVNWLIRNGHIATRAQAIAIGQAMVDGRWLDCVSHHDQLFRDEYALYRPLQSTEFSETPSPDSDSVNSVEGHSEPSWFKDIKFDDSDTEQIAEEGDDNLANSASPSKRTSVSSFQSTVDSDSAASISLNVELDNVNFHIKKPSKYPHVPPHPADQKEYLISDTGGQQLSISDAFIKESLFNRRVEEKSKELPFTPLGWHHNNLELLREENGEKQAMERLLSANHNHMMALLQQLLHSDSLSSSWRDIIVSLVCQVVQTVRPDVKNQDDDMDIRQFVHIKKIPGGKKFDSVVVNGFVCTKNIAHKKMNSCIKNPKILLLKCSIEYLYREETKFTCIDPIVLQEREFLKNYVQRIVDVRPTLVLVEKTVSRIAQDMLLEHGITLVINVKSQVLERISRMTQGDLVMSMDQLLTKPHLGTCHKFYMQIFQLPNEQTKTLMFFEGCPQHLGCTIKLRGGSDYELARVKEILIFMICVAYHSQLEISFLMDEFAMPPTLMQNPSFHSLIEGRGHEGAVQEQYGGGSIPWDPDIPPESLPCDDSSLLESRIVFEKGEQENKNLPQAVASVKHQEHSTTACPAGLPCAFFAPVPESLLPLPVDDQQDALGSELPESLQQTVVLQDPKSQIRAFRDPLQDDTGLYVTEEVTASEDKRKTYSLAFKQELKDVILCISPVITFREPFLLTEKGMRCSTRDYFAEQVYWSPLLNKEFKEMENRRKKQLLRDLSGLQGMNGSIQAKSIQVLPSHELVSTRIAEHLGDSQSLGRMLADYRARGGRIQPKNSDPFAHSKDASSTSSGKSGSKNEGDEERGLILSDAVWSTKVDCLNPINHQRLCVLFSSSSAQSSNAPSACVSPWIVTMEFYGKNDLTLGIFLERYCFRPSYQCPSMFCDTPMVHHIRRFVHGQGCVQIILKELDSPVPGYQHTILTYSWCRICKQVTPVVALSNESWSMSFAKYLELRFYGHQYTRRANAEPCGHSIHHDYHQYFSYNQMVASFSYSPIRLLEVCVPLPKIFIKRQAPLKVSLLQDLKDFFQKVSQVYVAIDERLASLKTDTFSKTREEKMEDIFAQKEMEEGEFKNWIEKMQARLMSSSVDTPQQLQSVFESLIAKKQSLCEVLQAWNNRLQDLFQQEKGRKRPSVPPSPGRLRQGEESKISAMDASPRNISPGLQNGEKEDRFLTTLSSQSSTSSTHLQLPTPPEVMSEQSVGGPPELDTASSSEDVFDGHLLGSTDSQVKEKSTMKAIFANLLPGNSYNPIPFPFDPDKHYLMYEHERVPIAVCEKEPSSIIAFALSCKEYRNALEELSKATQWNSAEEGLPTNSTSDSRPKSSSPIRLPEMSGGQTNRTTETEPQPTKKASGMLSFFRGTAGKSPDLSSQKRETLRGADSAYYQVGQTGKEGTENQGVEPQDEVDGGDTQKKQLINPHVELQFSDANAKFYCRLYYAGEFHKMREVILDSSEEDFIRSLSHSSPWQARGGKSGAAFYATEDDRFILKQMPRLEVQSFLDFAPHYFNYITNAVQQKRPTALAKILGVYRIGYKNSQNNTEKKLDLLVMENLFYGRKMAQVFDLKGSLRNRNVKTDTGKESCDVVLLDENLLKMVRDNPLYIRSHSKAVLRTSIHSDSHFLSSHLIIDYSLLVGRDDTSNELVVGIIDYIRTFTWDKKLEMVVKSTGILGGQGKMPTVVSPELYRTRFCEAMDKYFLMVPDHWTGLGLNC

IC50: 4.41 µM
Compound: CCn1c(C(C)O)nc2c(N3CCCCC3)nc(-c3cccc(-c4ccn(C)n4)c3)nc21 (stereo not shown) [Compound 339, 1-(9-ethyl-2-(3-(1-methyl-1H-pyrazol-3-yl)phenyl)-6-(piperidin-1-yl)-9H-purin-8-yl)ethan-1-ol]

Reference: US20250353851A1, “PURINES AND METHODS OF THEIR USE” (Kineta, Inc., priority 2021, published 2025)
